Values joined by “and” are separate entries in the source; they are usually repeats but may differ in a detail not shown here. Equal values may be shown once.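 Exposure lasted 48 hours, with cells grown in 96-well plates and compounds tested at five concentrations. At the GI50, growth is halved. Definition used: TGI = concentration required for complete inhibition of growth.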
Tests used:
Assay in all cases: NCI-60 cell line screen, 48 h
[1] = tested on: A549 NSCLC
[2] = tested on: SF-539 CNS
[3] = tested on: MALME-3M melanoma
[4] = tested on: A498 renal
[5] = tested on: LOX IMVI melanoma
[6] = tested on: 786-0 renal
[7] = tested on: KM12 colon
[8] = tested on: T-47D breast
[9] = tested on: NCI/ADR-RES ovarian
[10] = tested on: MDA-MB-231 breast

Compound	GI50 [1]	TGI [1]	GI50 [2]	TGI [2]	GI50 [3]	TGI [3]	GI50 [4]	TGI [4]	GI50 [5]	TGI [5]	GI50 [6]	TGI [6]	GI50 [7]	TGI [7]	GI50 [8]	TGI [8]	GI50 [9]	TGI [9]	GI50 [10]	TGI [10]
C#CCSc1cc(Cl)c(C)cc1S(=O)(=O)Nc1nc2ccccc2o1	31.8 µM	> 100 µM	20.2 µM	39.1 µM	28.1 µM	73.5 µM	33.4 µM	87.1 µM	36 µM	> 100 µM	31.9 µM	91.4 µM	27.4 µM	75.4 µM	44.3 µM	> 100 µM	42.9 µM	> 100 µM	46.8 µM	> 100 µM
COCc1cc(C(=O)Nc2cc([C@H]3CC[C@@H](OC(=O)NC(C)C)C3)[nH]n2)n(C)n1	13 µM	> 100 µM	6.34 µM	43.7 µM	24.2 µM	74.1 µM	11.4 µM	34.5 µM	4.15 µM	75.5 µM	11.2 µM	> 100 µM	1.27 µM	23.1 µM	9.71 µM	89 µM	> 100 µM	> 100 µM	16.6 µM	91.1 µM
O=C(c1ccccc1)C1OC1c1ccc([N+](=O)[O-])cc1 (stereo not given)	24.9 µM	> 100 µM	10.2 µM	76.8 µM	6.22 µM	> 100 µM	18.8 µM	53.1 µM	1.81 µM	10.8 µM	17.7 µM	70.7 µM	3.83 µM	17.7 µM	3.9 µM	71.1 µM	2.58 µM	9.36 µM	11 µM	33.1 µM
COc1cc(NCCCN=C(N)NC(N)=NC(C)C)c2ncccc2c1	56.7 µM	> 100 µM	5.08 µM	30 µM	0.813 µM	4.1 µM	36.6 µM	> 88.8 µM	11.8 µM	42.9 µM	50.7 µM	> 100 µM	0.633 µM	11.2 µM	1.58 µM		> 100 µM	> 100 µM	1.96 µM	14.3 µM
C[C@@]12CCC[C@@](C)(C(=O)O)C1CC[C@]13C[C@@](O)(CO)[C@](O)(CCC12)C3 (stereo not given in full)	> 100 µM	> 100 µM	> 100 µM	> 100 µM	> 100 µM	> 100 µM	> 100 µM	> 100 µM	> 100 µM	> 100 µM	> 100 µM	> 100 µM	> 100 µM	> 100 µM	> 100 µM	> 100 µM	> 100 µM	> 100 µM	> 100 µM	> 100 µM
CN(Cc1ccccc1)c1ccc(CO)c(Cl)c1	4.74 µM	32.5 µM	61.3 µM	> 100 µM	79 µM	> 100 µM	0.0652 µM	0.212 µM	45.8 µM	> 100 µM	15.7 µM	> 100 µM	22.6 µM	> 86.5 µM	0.857 µM	5.45 µM	18.9 µM	72.6 µM	34.1 µM	> 100 µM
O=C1C=CC(=Nc2cc(Br)c(O)c(Br)c2)C=C1	42.6 µM	> 100 µM	21.5 µM	64.1 µM	18.4 µM	> 100 µM	26.5 µM	> 100 µM	21.6 µM	66.6 µM	23.6 µM	60.6 µM	16.9 µM	42.5 µM	12.4 µM	41.4 µM	47.2 µM	> 100 µM	31.5 µM	> 100 µM
Cc1csc(/C=C/C(=O)c2nnn(-c3ccnc4c(C(F)(F)F)cccc34)c2C)c1	39.7 µM	> 100 µM	> 100 µM	> 100 µM	> 100 µM	> 100 µM	> 100 µM	> 100 µM	49.1 µM	> 100 µM	> 100 µM	> 100 µM	52.7 µM	> 100 µM	21.1 µM	> 100 µM	47.7 µM	> 100 µM	29.2 µM	> 100 µM
c1ccc(CN2COc3c(ccc4c3OCN(Cc3ccccc3)C4)C2)cc1	0.477 µM	> 100 µM	1.45 µM	6.41 µM	3.06 µM	> 100 µM	1.19 µM	> 30.3 µM	0.825 µM	> 100 µM	0.809 µM	> 100 µM	0.621 µM	> 100 µM	0.96 µM	> 100 µM	0.256 µM	> 100 µM	0.564 µM	> 100 µM
O=C(O)C1(C(=O)O)CCC1.[NH2-].[NH2-].[Pt+2]	107 µM and 185 µM	226 µM and > 250 µM	81.2 µM and 96 µM	221 µM and > 250 µM	72.2 µM and 107 µM	180 µM and 192 µM	224 µM and 154 µM	248 µM and > 250 µM	70.2 µM and 70.7 µM	211 µM and 175 µM	111 µM and 67.9 µM	248 µM and > 250 µM	218 µM and > 250 µM	> 250 µM	> 250 µM	> 250 µM	171 µM and 168 µM	228 µM and > 250 µM	247 µM and > 250 µM	> 250 µM
S=C(Nc1ccc(-c2nc3ccccc3[nH]2)cc1)Nc1ccc(-c2nc3ccccc3[nH]2)cc1	> 100 µM	> 100 µM	> 100 µM	> 100 µM	52.5 µM	> 100 µM			> 100 µM	> 100 µM	89.7 µM	> 100 µM	43.5 µM	> 100 µM	> 100 µM	> 100 µM	66.9 µM	> 100 µM	41.8 µM	> 100 µM
CCN(CC)c1ccc(C(O)C2=CC(=O)c3ccccc3C2=O)cc1 (stereo not given)	4.4 µM	30.9 µM	2 µM	4.18 µM	1.59 µM	3.13 µM	2.36 µM	8.35 µM	1.14 µM	3.66 µM	1.36 µM	2.65 µM			2.69 µM	> 100 µM	> 32.9 µM	> 100 µM	1.53 µM	4.61 µM

Reference: PubChem BioAssay (NCI)
